Laboratory results published in US11198869B2, “Angelman syndrome antisense treatment” (The Texas A&M University System, priority 2017, dated 2021).

Test system: paternal Ube3aYFP protein
Experiment: Paternal Ube3aYFP protein levels by immunofluorescent imaging in mouse primary hippocampal neurons
Assay type: cell-based
Settings: treated 7 DIV, imaged 10 DIV; ASOs 1, 5, 15 μM, Topotecan 300 nM; compared to ASO-C and Veh
Protocol: Based on these findings, mouse-specific ASOs were designed to target a specific region in the Ube3a-AS transcript (Table 6 and FIG. 2A). To test whether ASOs targeting this region reactivate expression of the paternal Ube3a allele, primary hippocampal neuronal cultures were generated from the Ube3aYFP reporter mouse model (Ube3a+/YFP; FIG. 2B) and treated at 7 days in vitro (DIV) with a control ASO [ASO-C (10 uM, n=3)], three ASOs targeting Ube3a-AS [ASO-1.1, ASO-1.2, ASO-3.1 (1 μM, 5 μM, and 15 μM, n=3)], and ASO-B (1 μM, 5 μM, and 15 μM, n=3)]. As a positive control, neurons were also treated with Topotecan [Topo (300 nM, n=3)] and a negative vehicle control [Veh (1%, n=3); FIG. 2 C]. Three days post-treatment (10 DIV), immunofluorescent imaging was used to quantify paternal Ube3aYFP protein levels in individual cells.
Primary cultures of hippocampal neurons were generated from P0-P1 pups (Ube3a^m+/p+ and Ube3a^m+/pYFP) by crossing Ube3a^m+/pYFP males with wild-type C57BL/6J females. Genotypes were determined using methods described previously. Briefly, hippocampal neurons were cultured in Neurobasal A medium (Invitrogen, San Diego, Calif.) supplemented with B27 (Invitrogen) and penicillin/streptomycin (Invitrogen) on 96-well optical bottom plates coated with poly-D-Lysine (152028, Thermo Fisher Scientific) and laminin (23017-01, Thermo Fisher Scientific). […]

C^O*C^O*A^O*C^O*A^O*t*t*t*c*c*t*c*t*c*a*U^O*G^O*G^O*A^O*A^O [ASO-1.1]
paternal Ube3aYFP protein levels: level similar to that achieved by the optimal concentration of Topotecan
